Measurements as given in patent US20150342195A1, “ANTI-MICROBIAL COMPOSITIONS, PREPARATIONS, METHODS, AND USES” (MYCO SCIENCES LIMITED, priority 2014, published 2015).
Read-outs that look alike come from different tables or passages of the source.

What was measured:
[1] = system: Xanthomonas campestris (strain Race 5 from brassica); test: Bacterial microplate culture (resazurin MIC); format: cell-based; conditions: Xanthomonas campestris; 24 hours at 28° C.; highest concentration 400 mg/L (1% of stock solutions); read-out: MIC
[2] = system: Magnaporthe oryzae; test: microbe, parasite or virus in culture; format: cell-based; conditions: for Average diameter of fungal growth: Cu—Zn#12 0%, plug subtracted
[3] = system: Ralstonia solanacearum (strain PSS4 from tomato); test: microbe, parasite or virus in culture; format: cell-based; conditions: Ralstonia solanacearum, 24 h
[4] = system: Aspergillus niger; test: Fungal growth inhibition assay (hyphal growth diameter on PDA); format: cell-based; conditions: for IC50: Aspergillus niger
[5] = system: Pseudomonas syringae (pv. tomato DC3000); test: Bacterial microplate culture (resazurin MIC); format: cell-based; conditions: Pseudomonas syringae; 24 hours at 28° C.; highest concentration 400 mg/L (1% of stock solutions); read-out: MIC
[6] = system: Mycosphaerella graminicola; test: Fungal growth inhibition assay (hyphal growth diameter on PDA); format: cell-based
Method: The fungal strains used in these studies are described in TABLE 2. The strains were routinely cultured in 9 centimeter Petri dishes containing 10 milliliters of potato dextrose agar (PDA) at room temperature (22° C.) apart from U. maydis (28° C.).
(§1) To assess the effects of compositions on fungal growth, 10 microliters of the test compositions diluted in sterile distilled water were placed in the wells of a 12-well tissue culture plate and 1 milliliter of liquid PDA was added by pipette to each well. Where multiple samples were added to each well, the 10 microliter drops were kept separate until they were mixed by the addition of hot liquid PDA and the plate was then agitated to evenly distribute the test composition(s) evenly through the agar (distilled water was used as vehicle control) and then the agar was allowed to set. […] To assess the effects of compositions on fungal growth in all experiments, the diameter of the hyphal growth was measured twice at a 90° angle using a ruler and the average diameter in millimeters was calculated. If no fungal growth could be detected by eye, the cultures were observed by phase microscopy (40×) to confirm that there was no growth (NG).

[7] = system: Alternaria alternata; test: as above; format: cell-based; conditions: for IC50: Alternaria alternata
[8] = system: Botrytis cinerea; test: as above; format: cell-based; conditions: for IC50: Botrytis cinerea
[9] = system: Fusarium graminearum; test: microbe, parasite or virus in culture; format: cell-based; conditions: for IC50: Fusarium graminearum
[10] = system: plant pathogenic fungi; test: organism not typed; format: cell-based; conditions: for fungal growth with KS: 1000 milligrams/liter KS
[11] = system: Ustilago maydis; test: Fungal growth inhibition assay (hyphal growth diameter on PDA); format: cell-based; conditions: for IC50: Mycosarcoma maydis
[12] = system: Xanthomonas oryzae (strain Gx0372); test: microbe, parasite or virus in culture; format: cell-based; conditions: Xanthomonas oryzae, 24 h
[13] = system: Trichophyton rubrum; test: Fungal growth inhibition assay with Trichophyton rubrum; format: cell-based
Method: as §1, with “set. For most strains (see TABLE 2), plugs of agar containing fungal hyphae (2 to 3 millimeters in diameter) from the edge of an established fungal culture were carefully cut out using a scalpel and inserted into holes cut in the centre of the agar in each well of the 12-well plate. With B. cinerea and U. maydis, mature cultures were washed with 3 ml of sterile distilled water and the spore suspensions obtained were adjusted to O.D. (at 600 nanometers) of 1.0 and 1.5, respectively. A small hole (˜1 millimeter) was made in the center of the PDA in each well with a yellow pipette tip and 1.5 microliters of spore suspension was carefully pipetted into the hole.” for “set.”
A clinical isolate of T. rubrum (strain 7107996; Phylum: Acomycota) was kindly provided by Dr. Richard Barton, Leeds University, UK. The growth assays with T. rubrum were as described in EXAMPLE 1, except this strain was cultured at 33° C. on PDA for 6 or 7 days when growth was assessed. T. rubrum cultures were maintained on Sabouraud dextrose agar at 33° C.
FIG. 8 is a graph depicting the effects of selected compositions and compounds on the growth of Trichophyton rubrum. The culture period was 7 days. Growth in the control cultures was 20±0 millimeters (mean±SD for 2 experiments).

[14] = system: 4 plant pathogenic bacterial strains; conditions: KS at ≧10,000 milligrams/liter, any strain
[15] = system: Rhizoctonia solani; test: Fungal growth inhibition assay (hyphal growth diameter on PDA); format: cell-based; conditions: for IC50: Rhizoctonia solani
[16] = read-out: Potassium sorbate IC50, mean ± SD, PDA
[17] = read-out: Potassium sorbate IC50, single experiments, PDA

With C/C=C/C=C/C(=O)[O-].[K+] [Potassium sorbate] the MIC [1] was greater than 10000 µg/mL, the “Average diameter of fungal growth” value ([2]; KS 10 mg/L, PDA) was 17 mm and the “Average diameter of fungal growth” value ([2]; KS 30 mg/L, PDA) was 17 mm. The “Average diameter of fungal growth” value ([2]; KS 100 mg/L, PDA) was 15 mm, the “Average diameter of fungal growth” value ([2]; KS 150 mg/L, PDA) was 14 mm and the “Average diameter of fungal growth” value ([2]; KS 300 mg/L, PDA) was 9 mm. For the same compound, the “effect on fungal growth alone” value ([2]; KS 10 milligrams/liter alone) was “no effect”, the “Minimum KS concentration required for NG” value ([2]; PDA, NG = no fungal growth) was 1000 mg/L and the IC50 ([2]; Pyricularia oryzae, read-out: Potassium sorbate IC50, mean ± SD, PDA) was 140 µg/mL. The “KS concentration that completely inhibited growth” value ([2]; in the presence of […] Cu—Zn#12) was 30 milligrams/liter, the “times lower KS concentration for complete inhibition” value ([2]; with […] Cu—Zn#12 versus KS alone) was 33 times and the MIC [3] was greater than 10000 µg/mL. For the same compound, the IC50 [4, 16] was 91 µg/mL, the IC50 [4, 17] was 82 µg/mL and the “Potassium sorbate IC50, single experiments” value (“Potassium sorbate IC50” for short) ([4]; PDA) was 100 µg/mL. The “Minimum KS concentration required for NG” value ([4]; PDA, NG = no fungal growth) was 300 mg/L, the MIC [5] was greater than 10000 µg/mL and the “Minimum KS concentration required for NG” value ([6]; NG = no fungal growth) was 300 mg/L. For the same compound, the IC50 ([6]; Zymoseptoria tritici, read-out: Potassium sorbate IC50, single experiment) was 150 µg/mL, the IC50 [7, 16] was 190 µg/mL and the IC50 [7, 17] was 180 µg/mL. For the same compound, the “Potassium sorbate IC50” value ([7]; PDA) was 200 µg/mL, the “Minimum KS concentration required for NG” value ([7]; PDA, NG = no fungal growth) was 300 mg/L and the IC50 [8, 16] was 175 µg/mL. For the same compound, the IC50 [8, 17] was 200 µg/mL, the “Potassium sorbate IC50” value ([8]; PDA) was 150 µg/mL and the “Minimum KS concentration required for NG” value ([8]; PDA, NG = no fungal growth) was 1000 mg/L. The IC50 [9, 16] was 185 µg/mL, the IC50 [9, 17] was 150 µg/mL and the “Potassium sorbate IC50” value ([9]; PDA) was 220 µg/mL. The “Minimum KS concentration required for NG” value ([9]; PDA, NG = no fungal growth) was 1000 mg/L, the “number of fungal strains whose growth was completely inhibited” value ([10]; 300 milligrams/liter KS, eight strains tested) was 4 strains and the “fungal growth with KS” value ([10]; all eight fungal strains) was “completely inhibited”. The “fungal growth with KS” value ([10]; five fungal strains of FIG. 2) was “no growth”, the IC50 ([10]; read-out: KS IC50 range on plant pathogenic fungi) was 77 to 190 µg/mL and the IC50 ([11]; read-out: KS IC50, PDA) was 0.077 µg/mL. The IC50 [11, 16] was 77 µg/mL, the IC50 [11, 17] was 74 µg/mL and the “Potassium sorbate IC50” value ([11]; PDA) was 80 µg/mL. The “Minimum KS concentration required for NG” value ([11]; PDA, NG = no fungal growth) was 300 mg/L, the MIC [12] was greater than 10000 µg/mL and the “inhibition of fungal growth” value ([13]; KS 100 milligrams/liter on its own) was 6%. For the same compound, the “KS concentration required for complete inhibition of fungal growth” value ([13]; KS alone (FIG. 9)) was 300 milligrams/liter, the “T. rubrum IC50 values: % of stock solution” value ([13]; PDA, 33° C., 7 days) was 0.017 % of stock solution and the IC50 ([13]; Trichophyton rubrum, 168 h, PDA, 33° C., 7 days, Cu—Zn#12: 50% each of elemental copper and zinc, read-out: T. rubrum IC50 values: Concentration) was 17 µg/mL. The “effect on bacterial growth” value [14] was “no effect”, the “Potassium sorbate IC50” value ([15]; PDA) was 100 µg/mL and the “Minimum KS concentration required for NG” value ([15]; PDA, NG = no fungal growth) was 1000 mg/L. It also gave an IC50 [15, 16] of 91 µg/mL and an IC50 [15, 17] of 73 µg/mL.
